The test system of one data set is A549. The experiment in a line: WST-1 proliferation / cytotoxic test. Format: cell-based. Conditions: Homo sapiens, Lung, wst-1 cytotoxic test, 72 h. The procedure: (§1) After observation of cells under the microscope, old media were removed and the adherent cells washed gently twice with PBS (Phosphate Buffer Saline, -Ca^2+, -Mg^2+, Lonza cat n°: 17-512F/12). All cells were detached with 3 ml of trypsin/EDTA (chelator of calcium and magnesium ions) (Lonza), incubated for 5 min at 37°C, and examined using a microscope to ensure that the cells were detached and floating. Then, 3 ml TNS (Trypsin Neutralizing Solution, Lonza, France, cat n° CC-5002) or of culture medium were added to inactivate the trypsin, and the cell suspension was transferred in a falcon tube and centrifuged for 7 min at 1400 rpm. The supernatant was removed and the cell pellet resuspended in […] of culture medium. 50 µL of this solution were transferred in 20 µL of isotonic solution and the cells were counted by count cellular (Beckman Coulter). At day 0, 200 µL of cellular suspension (3.10^3 cells/well for the HUVEC cells, breast cancer cells (MDA-MB-231 1.10^4 cells/well, MDA-MB-468 2.10^4 cells/well,); cervical cancer cells (HeLa 5.000 cells/well); colon cancer cells (HCT-116 5.10^3 cells/well, HCT-29 1.1.10^4 cells/well); pancreas cancer cells (Panc-10.5 1.5.10^4 cells/well); brain cancer cells (U87 5.10^3 cells/well, SH-SYSY 8.10^4 cells/well); Lung cancer cells (A 549 1.10^4 cells/well, NCI-H460 1.10^4 cells/well); fibrosarcoma cells (HT 1080 8.10^3 cells/well); Burkitt's lymphoma cells (DAUDI 3.10^4 cells/well); acute lymphoblastic leukemia cells (CEM 3.10^4 cells/well); chronic myeloid leukemia cells (ERY 5.10^4 cells/well); mantle cell lymphoma (GRANTA 1.10^5 cells/well); B lymphoma cells (VAL 1.10^5 cells/well)) were then plated on 96 well plates and incubated at 37°C in a humidified atmosphere of 5% CO2 for 24 h.
(§2) At day 1, the compound 1 of the invention was added at increasing concentrations (0.1 - 10 µM) in the wells and plates were incubated at 37°C in a humidified atmosphere of 5% CO2 for 72 h.
(§3) The cell proliferation WST-1 assay is a colorimetric assay for the quantification of cell proliferation and viability, based on the enzymatic cleavage of the tetrazolium salt WST-1 added to the culture medium, to a water soluble colored formazan dye, detected by absorbance at 450 nm, by mitochondrial succinate-tetrazoliumreductase in viable cells. An augmentation in enzyme activity will then lead to an increase in the amount of formazan dye formed, which directly correlates to the number of metabolically active cells in the culture.
(§4) After an incubation period of 72 h, at day 4, were prepared the 19 mL medium with reagent WST-1 1mL ([…]). The medium was removed from the 96 microplate and 200 µL of solution WST-1/medium were added for each well. The cells were incubated at 37°C in a humidified atmosphere of 5% CO2 for 1h30 and the absorbance at 450-655 nm was measured by Microplate Manager 5.2 (Bio-Rad).
(In general: Formazan colour is commonly taken as a measure of viable cells.)

The test system of another data set is CEM. As to the kind of experiment: WST-1 proliferation / cytotoxic test. It counts as cell-based. The settings on record: Homo sapiens, CCRF-CEM, Acute lymphoblastic leukemia, wst-1 cytotoxic test, 72 h. On the procedure: as §1, §2, §3, §4
A further data set relates to DAUDI. The experiment in a line: WST-1 proliferation / cytotoxic test. It counts as cell-based. Conditions: Homo sapiens, Burkitt's lymphoma, wst-1 cytotoxic test, 72 h. The procedure: as §1, §2, §3, §4
For another data set, the system named is ERY-1. As to the kind of experiment: WST-1 proliferation / cytotoxic test. The settings on record: Homo sapiens, Chronic myeloid leukemia, wst-1 cytotoxic test, 72 h. Format: cell-based. On the procedure:
as §1, §2, §3, §4

Another data set deals with Granta-519. As to the kind of experiment: WST-1 proliferation / cytotoxic test. It counts as cell-based. The settings on record: Homo sapiens, Mantle cell lymphoma, wst-1 cytotoxic test, 72 h. The procedure: as §1, §2, §3, §4
Another data set has as its system HCT-116. As to the kind of experiment: WST-1 proliferation / cytotoxic test. It counts as cell-based. The settings on record: Homo sapiens, Colon, wst-1 cytotoxic test, 72 h. The procedure:
as §1, §2, §3, §4

The test system of a further data set is HT-1080. The experiment in a line: WST-1 proliferation / cytotoxic test. It counts as cell-based. Conditions: Homo sapiens, Fibrosarcoma, wst-1 cytotoxic test, 72 h. The procedure: as §1, §2, §3, §4
Another data set has as its system HT-29. The experiment in a line: WST-1 proliferation / cytotoxic test. Format: cell-based. The settings on record: Homo sapiens, Colon, wst-1 cytotoxic test, 72 h. On the procedure:
as §1, §2, §3, §4

In a further data set the test system is HeLa. The experiment in a line: WST-1 proliferation / cytotoxic test. It counts as cell-based. The settings on record: Homo sapiens, Cervical, wst-1 cytotoxic test, 72 h. The procedure:
as §1, §2, §3, §4

A further data set has as its system MDA-MB-468. As to the kind of experiment: WST-1 proliferation / cytotoxic test. Conditions: Homo sapiens, Breast, wst-1 cytotoxic test, 72 h. It counts as cell-based. On the procedure:
as §1, §2, §3, §4

For a further data set, the system named is NCI-H460. As to the kind of experiment: WST-1 proliferation / cytotoxic test. Format: cell-based. The settings on record: Homo sapiens, Lung, wst-1 cytotoxic test, 72 h. On the procedure:
as §1, §2, §3, §4

The next data set concerns Panc-10.5. The experiment in a line: WST-1 proliferation / cytotoxic test. Format: cell-based. The settings on record: Homo sapiens, Pancreas, wst-1 cytotoxic test, 72 h. The procedure: as §1, §2, §3, §4
In the next data set the test system is SH-SY5Y. As to the kind of experiment: WST-1 proliferation / cytotoxic test. It counts as cell-based. The settings on record: Homo sapiens, Brain, wst-1 cytotoxic test, 72 h. The procedure: as §1, §2, §3, §4
For a further data set, the system named is U87. As to the kind of experiment: WST-1 proliferation / cytotoxic test. Format: cell-based. The settings on record: Homo sapiens, U-87 MG, Brain, wst-1 cytotoxic test, 72 h. The procedure:
as §1, §2, §3, §4

Another data set deals with VAL. As to the kind of experiment: WST-1 proliferation / cytotoxic test. Conditions: Homo sapiens, B lymphoma, wst-1 cytotoxic test, 72 h. Format: cell-based. The procedure:
as §1, §2, §3, §4

A further data set deals with HUVEC cells. The experiment in a line: WST-1 proliferation assay. It counts as cell-based. Conditions: in vitro, Figure 1B. On the procedure: After observation of cells under the microscope, old media were removed and the adherent cells washed gently twice with PBS (Phosphate Buffer Saline, -Ca^2+, -Mg^2+, Lonza cat n°: 17-512F/12). All cells were detached with 3 ml of trypsin/EDTA (chelator of calcium and magnesium ions) (Lonza), incubated for 5 min at 37°C, and examined using a microscope to ensure that the cells were detached and floating. Then, 3 ml TNS (Trypsin Neutralizing Solution, Lonza, France, cat n° CC-5002) or of culture medium were added to inactivate the trypsin, and the cell suspension was transferred in a falcon tube and centrifuged for 7 min at 1400 rpm. The supernatant was removed and the cell pellet resuspended in […] of culture medium. 50 µL of this solution were transferred in 20 µL of isotonic solution and the cells were counted by count cellular (Beckman Coulter). […]
The cell proliferation WST-1 assay is a colorimetric assay for the quantification of cell proliferation and viability, based on the enzymatic cleavage of the tetrazolium salt WST-1 added to the culture medium, to a water soluble colored formazan dye, detected by absorbance at 450 nm, by mitochondrial succinate-tetrazoliumreductase in viable cells. […]

For the next data set, the system named is MDA-MB-231 cells. As to the kind of experiment: Adhesion test (crystal violet). Format: cell-based, human. The settings on record: in vitro, Figure 3A.
A short description of data set [1]: In vivo xenograft study, body weight. Conditions: NOD-SCID IL-2Rγ-/- mice, both tested doses (10 or 50 mg/kg), oral gavage three times a week, Figure 5A. The procedure: Female (NOD-SCID, IL-2Rγ^-/-) mice 5-6 weeks old were injected subcutaneously with MDA-MB-231 cells (5.10^6) at a single site on their right flanks. Tumors were allowed to grow to about 100 mm^3 before being pair-matched by tumor size into treatment groups (8 mice/group). One group was treated with vehicles (8 mice receiving cremofor 12.5%/ethanol 12.5%/ H2O), one group was treated with 10 mg/kg of the compound 1 of the invention (8 mice receiving compound 1 + cremofor 12.5%/ethanol 12.5%/ H2O), one group was treated with 50 mg/kg of the compound 1 of the invention (8 mice receiving compound 1+ cremofor 12.5%/ethanol 12.5%/ H2O). All groups received 3 times a week by oral gavages approximately 100 µL of a solution containing the compound 1 of the invention. Mice were weighed regularly to assess toxicity of the treatments and the tumors were measured with calipers (width x width x length x Pi/6) to determine tumor growth. Mice survival was assessed during the study and metastatic development was investigated in lung, spleen and liver.

As a reminder, the IC50 is the concentration that gives 50% inhibition. High values mean weaker potency in that assay, low ones greater potency in that assay. Regarding `CCOc1ccccc1NC(=O)c1ccc(C)c(S(=O)(=O)Nc2ccc(C)cc2)c1` [Compound 1, N-(2-ethoxyphenyl)-4-methyl-3-(N-(p-tolyl)sulfamoyl)benzamide], the half-maximal inhibitory concentration (IC50) in the data set on A549 is 0.4 ± 0.03 µM; with CEM it was 0.1 ± 0.08 µM; in the data set with DAUDI, 0.5 ± 0.02 µM; in the data set with ERY-1, 0.2 ± 0.03 µM; with Granta-519 it was 0.5 ± 0.07 µM; with HCT-116, 0.5 ± 0.07 µM. For the same compound, the IC50 was determined as 0.3 ± 0.01 µM with HT-1080; 0.5 ± 0.01 µM in the data set with HT-29; 0.2 ± 0.06 µM with HeLa; 0.5 ± 0.06 µM in the data set on MDA-MB-468; 0.5 ± 0.07 µM in the data set with NCI-H460; 0.5 ± 0.04 µM with Panc-10.5. The IC50 turned out to be 0.1 ± 0.02 µM in the data set with SH-SY5Y, 0.5 ± 0.02 µM in the data set on U87 and 1 ± 0.06 µM in the data set with VAL. Besides, the “proliferation of HUVEC cells” value in the data set with HUVEC cells is listed as “inhibited”. For the same compound, the “adhesion of MDA-MB-231 cells” value in the data set on MDA-MB-231 cells is recorded as “inhibits”. In addition, the “body weight (toxicity)” value in data set [1] is “no significant change in body weight”.
